For data set [1] the following is noted: cited from earlier work.
Data set [2] in a line: Equilibrium dialysis of DcNP-associated versus free drug. The data set is classed as physicochemical. As to conditions: TLC-ART101, equilibrium dialysis, 6-8 kDa cut-off membrane. A general note: In equilibrium dialysis free small molecules cross a membrane that holds back macromolecules.
Data set [3] is classed as in vivo, Macaca nemestrina.
The nature of data set [4]: Free ARV compartmental models. In kind it is in vivo, Macaca nemestrina. As to conditions: for CL/F: calculated from population PK parameters; for half-life / k el / Vd/F: male, monkey, sc.
Data set [5] is described as follows: TLC-ART101 mechanism-based pharmacokinetic. The conditions noted are these: for k21, lymphatic entry rate constant, fast pathway / k31, lymphatic entry rate constant, intermediate pathway / k41, lymphatic entry rate constant, slow pathway / tlag2, lymphatic transit lag time, intermediate pathway / tlag1, lymphatic transit lag time, fast pathway / V5_DcNP, apparent volume of distribution of DcNP-associated ARV / k75, rate constant for release of free ARV from DcNPs in plasma / tlag3, lymphatic transit lag time, slow pathway: TLC-ART101; for k21, lymphatic entry rate constant, fast pathway / k31, lymphatic entry rate constant, intermediate pathway / k41, lymphatic entry rate constant, slow pathway: fixed after manual adjustment.

Data set [6] in a line: in vivo. The conditions noted are these: macaque, sc.
For data set [7] the following is noted: rat, in vivo; cited from earlier work.
Where [8] appears, read: Free formulation, single SC dose, macaques, geometric mean (%CV), N=3.
Where [9] appears, read: TLC-ART101, single SC dose, macaques, geometric mean (%CV), N=4.
The mark [10] stands for this setting: Free formulation, parameter value (%CV).
[11] abbreviates: parameter value (%CV), listed as TLC-ART101 Ritonavir.
[12] abbreviates: TLC-ART101 model, free submodel, parameter value (%CV).
Setting [13] is: parameter value (%CV), listed as TLC-ART101 Tenofovir.
[14] abbreviates: TLC-ART101 model, free submodel.

Read-outs that look alike come from different tables or passages of the source.

By AUC(0-t) is commonly meant exposure summed from dosing to a finite time, without extrapolation to infinity. The low end stands for low exposure, the high end for high exposure. Usually half-life stands for how long it takes for the measured level to halve. A higher half-life goes with slow decline. Consider `Cc1cccc(C)c1OCC(=O)N[C@@H](Cc1ccccc1)[C@@H](O)C[C@H](Cc1ccccc1)NC(=O)[C@H](C(C)C)N1CCCNC1=O` [Lopinavir], for which the “Terminal t1/2” value in data set [1] (monkey, in vivo, sc) is reported as 476.94 (173) hr; in data set [3] (Free formulation, single SC dose, macaques, geometric mean (%CV), N=3, listed as Lopinavir (LPV)), 8.65 (28) hr. Also, in data set [2], the “mean fraction of DcNP-associated drug” value is 92.2%. The “CL/F, apparent total clearance” value in data set [3] (setting [8]) is 4.64 (14) L/[hr•kg]; in data set [3] (setting [9]) it was 0.85 (85) L/[hr•kg]. The same compound displayed an AUC(0-t) in data set [3] (male, monkey, plasma, sc) of 4350 ng·h/mL. Besides, the CL/F in data set [4] (Free formulation, listed as Free Lopinavir) is 4.24 L/[hr•kg]; in data set [4] (Free formulation, listed as LPV) it was roughly 4 L/[hr•kg]. The “k21, absorption rate constant” value in data set [4] (setting [10]) is 0.7120 (20) 1/hr. In data set [4] (plasma), this compound gave a half-life of 8.85 h. In data set [4] (plasma), this compound had a k el of 2.18e-05 s⁻¹.
In general, Vd/F refers to the volume of distribution divided by bioavailability. On to `CC(C)c1nc(CN(C)C(=O)N[C@H](C(=O)N[C@@H](Cc2ccccc2)C[C@H](O)[C@H](Cc2ccccc2)NC(=O)OCc2cncs2)C(C)C)cs1` [Ritonavir], for which, in data set [1] (setting [9]), the “AUC0-336h, area under the plasma drug concentration-time curve” value is recorded as 4.80 (57) hr•μg/mL and the “Terminal t1/2” value is listed as 44.06 (46) hr. For the same compound, the “mean fraction of DcNP-associated drug” value in data set [2] is reported as 91.1%. Besides, in data set [5], the “k21, lymphatic entry rate constant, fast pathway” value is reported as 0.2361 (-) 1/hr; the “k31, lymphatic entry rate constant, intermediate pathway” value is given as 0.1881 (-) 1/hr; the “k41, lymphatic entry rate constant, slow pathway” value is recorded as 0.0198 (-) 1/hr. Further, the “tlag2, lymphatic transit lag time, intermediate pathway” value in data set [5] (parameter value (%CV)) is recorded as 38.83 (13) hr. In data set [5] (parameter value (%CV), listed as RTV), the “tlag1, lymphatic transit lag time, fast pathway” value (“tlag1 … fast pathway” below) was roughly 2 h. Also, in data set [5] (setting [11]), the “V5_DcNP, apparent volume of distribution of DcNP-associated ARV” value is 10.09 (27) L/kg; the “k75, rate constant for release of free ARV from DcNPs in plasma” value was 0.4336 (5) 1/hr; the “tlag1 … fast pathway” value is listed as 2.13 (51) hr; the “tlag3, lymphatic transit lag time, slow pathway” value was 181.87 (11) hr. In data set [5] (setting [12]), the V7_Free is 67.94 (3) L/kg and the “k07, clearance rate constant of free ARV from central compartment” value was 0.0962 (4) 1/hr. Also, in data set [3] (setting [8]), the “CL/F, apparent total clearance” value was 4.23 (15) L/[hr•kg]. In data set [3] (Free formulation, single SC dose, macaques, geometric mean (%CV), N=3, listed as Ritonavir (RTV)), the “Terminal t1/2” value is recorded as 7.99 (38) hr. In data set [3] (setting [9]), the “CL/F, apparent total clearance” value is 1.43 (56) L/[hr•kg]. Further, in data set [3] (male, monkey, plasma, sc), the AUC(0-t) was determined as 1370 ng·h/mL. The Kp in data set [6] stood at 7.4. The CL/F in data set [4] (Free formulation, listed as Free Ritonavir) is 3.90 L/[hr•kg]. The CL/F in data set [4] (Free formulation, listed as RTV) is roughly 4 L/[hr•kg]. In data set [4] (setting [10]), the “k21, absorption rate constant” value is 0.6242 (29) 1/hr. Moreover, in data set [4] (plasma), the Vd/F came to 42.4 L/kg, the half-life was 7.54 h and the k el was 2.55e-05 s⁻¹.
Broadly, the Tmax is the time at which the peak concentration occurs. As to `C[C@H](Cn1cnc2c(N)ncnc21)OCP(=O)(O)O` [Tenofovir], the “Terminal t1/2” value in data set [1] (setting [9]) is 65.33 (11) hr. Moreover, in data set [1] (in vivo, sc), the “AUC0-336h, area under the plasma drug concentration-time curve” value is on record as 416.55 (15) hr•μg/mL. Moreover, the “mean fraction of DcNP-associated drug” value in data set [2] is listed as 11.2%. In addition, in data set [5], the “k21, lymphatic entry rate constant, fast pathway” value was 0.1300 (-) 1/hr; the “k31, lymphatic entry rate constant, intermediate pathway” value is recorded as 0.1588 (-) 1/hr; the “k41, lymphatic entry rate constant, slow pathway” value is given as 0.1779 (-) 1/hr. Besides, in data set [5] (parameter value (%CV)), the “V5_DcNP, apparent volume of distribution of DcNP-associated ARV” value is reported as 0.17 (22) L/kg and the “tlag2, lymphatic transit lag time, intermediate pathway” value is 24.04 (19) hr. The “tlag1 … fast pathway” value in data set [5] (parameter value (%CV), listed as TFV) worked out at 0.1 h. In data set [5] (setting [13]), the “k75, rate constant for release of free ARV from DcNPs in plasma” value is listed as 0.0164 (15) 1/hr; the “tlag1 … fast pathway” value was 0.10 (-) hr; the “tlag3, lymphatic transit lag time, slow pathway” value is 122.06 (3) hr. Besides, in data set [5] (setting [14]), the “k76, absorption rate constant of free ARV from SC site” value is 1.4201 (-) 1/hr and the k87 is 0.0298 (-) 1/hr. Further, in data set [5] (setting [12]), the V7_Free is 1.66 (18) L/kg; the “k07, clearance rate constant of free ARV from central compartment” value is listed as 0.5824 (2) 1/hr; the k78 was 0.0738 (0) 1/hr. Besides, in data set [3] (setting [8]), the “CL/F, apparent total clearance” value is 0.72 (4) L/[hr•kg] and the “MBRT0-24h, mean body residence time” value is 2.61 (12) hr. Moreover, in data set [3] (setting [9]), the “CL/F, apparent total clearance” value was 0.02 (15) L/[hr•kg] and the “MBRT0-336h, mean body residence time” value is reported as 102.68 (7) hr. For the same compound, in data set [3] (free formulation), the “MBRT0-24h fold shorter than those of free LPV and RTV” value is roughly 5 fold. Besides, in data set [3] (free formulation, by 10 hr), the “plasma level as % of peak” value is recorded as roughly 1%. Moreover, in data set [3] (male, monkey, plasma, sc), the AUC(0-t) came out at 14400 ng·h/mL and the time to peak (Tmax) was roughly 1 h. Further, the half-life in data set [3] (male, monkey, plasma, sc, Terminal t1/2, Free formulation, single SC dose, macaques, geometric mean (%CV), N=3) was 8.01 h. Further, the Kp in data set [6] amounted to 3.01. Further, the “k23, peripheral to central exchange rate constant” value in data set [4] (Free formulation, 2CM) is given as 0.0738 (-) 1/hr. Further, the Vβ/F in data set [4] (Free formulation, 2CM, secondary parameter) is 8.65 L/kg. For the same compound, in data set [4] (Free formulation, 2CM, parameter value (%CV)), the “k32, central to peripheral exchange rate constant” value is recorded as 0.0298 (0) 1/hr. In data set [4] (Free formulation), the CL/F is 0.60 L/[hr•kg]. Moreover, the “k21, absorption rate constant” value in data set [4] (setting [10]) is listed as 2.3423 (38) 1/hr. The compound also had a k el in data set [4] (in vivo) of 0.000164 s⁻¹. For the same compound, the Vd/F in data set [4] (in vivo, 10.6 mg/kg) is 1.44 L/kg.
In the case of `COc1cccc2c1C(=O)c1c(O)c3c(c(O)c1C2=O)C[C@@](O)(C(=O)CO)C[C@@H]3O[C@H]1C[C@H](N)[C@H](O)[C@H](C)O1` [doxorubicin], in data set [7], the “% of SC dose recovered in the blood” value is given as 64-74% and the “% of SC dose recovered in the lymph” value was 0.063-2%.
On to `CN(Cc1cnc2nc(N)nc(N)c2n1)c1ccc(C(=O)N[C@@H](CCC(=O)O)C(=O)O)cc1` [methotrexate], for which, in data set [7], the “% of SC dose recovered in the blood” value was 64-74% and the “% of SC dose recovered in the lymph” value was 0.063-2%.
